# What was measured:
# [1] = test system: plasma cytokines/chemokines; assay: Cytokine/chemokine analysis in plasma; type: in vivo, rhesus macaque; conditions: 4 hours post dose
# Source text: For plasma cytokine analysis (S1 Table), whole blood was collected into K2EDTA tubes from C-232A and vehicle dosed rhesus macaques (prebleed and various post-dose time points) and plasma was isolated and stored at −80^ºC. Cytokine/chemokine analysis in plasma samples was accomplished using a nonhuman primate-specific 37 Plex ProcartaPlex immunoassay system (Thermo Fisher Scientific) according to the manufacturer’s instructions. Samples were then read on a Luminex 200 (Luminex) platform and analyzed using Bio-plex Manager software (Bio-Rad).
# PKC-α = PKC-α (Homo sapiens, UniProt P17252); assay: PKC isoform translocation in A549-tGFP cells; type: cell-based; parameters: host or cells: A549; conditions: A549-tGFP cells, 60 minutes; read-out: EC50 for PKC-α translocation
# Method: A description of this effort is reported elsewhere.
# Cellular translocation of PKC isoforms upon activation was determined in 8 A549 cell lines, each expressing a single PKC isoform fused to tGFP (PhenoVista Biosciences). Cells were plated in 384-well plates (80 μL/well) at 10^5 cells/mL in RPMI with 10% FBS and rested overnight. PKC agonist(s) were serially diluted at 1:3 steps in DMSO and added to the cells. After 60 minutes in an incubator at 37 °C, 5% CO2, cells were stained with Hoechst-33342 and fixed with 2% paraformaldehyde for 30 minutes at 4 °C. Cells were then stained with wheat germ agglutinin conjugated to AlexaFluor647 (WGA-647) for 10 minutes at 4 °C, washed to remove excess dye and imaged with Cellomics Array Scan (Thermo Fisher) at room temperature (RT). Images were analyzed using Cellomics automated image analysis algorithm. Plasma membrane translocation was quantified using the ratio between the average fluorescence in the areas at the cell edge defined by WGA-647 and the cytoplasm region.
# PKC-θ = PKC-θ (Homo sapiens, UniProt Q04759); assay: Immunofluorescence of endogenous PKC in Jurkat cells; type: cell-based; conditions: 30 minutes
# PKC-θ, sequence (Q04759 whole entry): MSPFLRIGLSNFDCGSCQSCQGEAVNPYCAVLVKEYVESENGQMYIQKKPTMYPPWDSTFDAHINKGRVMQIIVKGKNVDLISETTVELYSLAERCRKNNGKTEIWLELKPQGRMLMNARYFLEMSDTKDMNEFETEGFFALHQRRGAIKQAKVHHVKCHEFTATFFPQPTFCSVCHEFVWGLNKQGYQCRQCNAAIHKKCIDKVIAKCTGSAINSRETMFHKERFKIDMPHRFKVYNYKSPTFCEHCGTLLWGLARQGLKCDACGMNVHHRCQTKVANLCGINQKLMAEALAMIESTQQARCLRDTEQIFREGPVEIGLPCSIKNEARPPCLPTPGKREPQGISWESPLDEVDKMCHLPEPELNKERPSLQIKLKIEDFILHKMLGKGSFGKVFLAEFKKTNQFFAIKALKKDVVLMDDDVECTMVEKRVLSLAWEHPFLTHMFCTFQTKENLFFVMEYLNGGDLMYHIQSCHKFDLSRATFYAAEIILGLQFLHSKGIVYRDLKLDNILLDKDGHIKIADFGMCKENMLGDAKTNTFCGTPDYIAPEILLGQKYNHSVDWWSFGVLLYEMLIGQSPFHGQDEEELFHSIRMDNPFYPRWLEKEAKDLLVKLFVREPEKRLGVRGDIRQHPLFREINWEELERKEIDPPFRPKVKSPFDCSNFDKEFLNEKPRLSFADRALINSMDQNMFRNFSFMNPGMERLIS
# Method: Cells were cultured in RPMI medium supplemented with 10% heat-inactivated FBS and penicillin-streptomycin. For treatment, cells were incubated in either DMSO or C-232A for 30 minutes at 37 °C. Cells were fixed in ice-cold methanol, washed, and blocked with 2% BSA for 60 minutes at RT. Blocked cells were stained with either a 5 μg/mL primary PKC-θ antibody (R&D Systems, catalog MAB4368) or a 1:100 primary PKC-α antibody (R&D Systems, catalog MAB5340SP) in PBS with 1% BSA at 22 °C for 90 minutes. Donkey anti-mouse IgG antibody conjugated with Alexa Fluor 647 (Thermo Fisher Scientific, catalog A-31571) at 2 μg/mL and goat anti-rat IgG H&L antibody conjugated with Alexa Fluor 488 (Abcam, catalog ab150157) were used as secondary antibodies, respectively, in PBS with 1% BSA at 22 °C for 60 minutes. After immunostaining, the cell suspension was mixed (1:1) with ProLong Gold antifade reagent containing DAPI (Life Technologies, catalog P36935) and 5 μL of the mix was applied onto a microscope slide, covered with a coverslip, and cured overnight in the dark at RT. Samples were imaged with a Leica SP8 confocal microscope. Image analysis was performed using ImageJ software.
# rhesus macaques = assay: In vivo monkey study: tolerability, clinical pathology, histopathology; parameters: species or system rhesus macaque
# Method: (§1) Male rhesus macaque monkeys (young adult to adult) were sourced from the Covance stock colony for conduct of in vivo studies at Covance Laboratories Inc. (Madison, Wisconsin, USA). Monkeys were administered a single dose of vehicle control (n = 3), 0.03, 0.1, 0.3, or 1 mg/kg of C-232A (n = 1) by intravenous infusion over 30 minutes using a sentinel approach. An additional 2 male monkeys were administered 0.3 mg/kg C232A after it was determined that this was the maximum tolerated dose level. Blood samples were collected through 24 hours postdose. Samples for PK (for measurement of C-232A concentration) and cytokine analysis were processed to plasma and shipped to Gilead Sciences. Activation of CD4^+ T cells was assessed by measuring CD69 expression levels in whole blood by flow cytometry (Covance Laboratories). Samples for clinical pathology were analyzed at Covance Laboratories for hematology, coagulation, and clinical chemistry panels. At unscheduled necropsy (1 mg/kg C-232A), tissues were preserved in 10% neutral-buffered formalin, embedded in paraffin, and processed to slides for staining with hematoxylin and eosin. Tissues were then evaluated independently (Experimental Pathology Laboratories, Inc).
# [2] = as above; parameters: species or system rhesus macaque; conditions: male, rhesus monkey, in vivo; single IV infusion; read-out: maximum tolerated dose
# Method: as §1
smiles,measurement,setting,value
Cc1ccc(C#Cc2ccc3oc(CC(C)(C)C(=O)OCC4(CO)CC(=CCC(CC(C)C)CC(C)C)C(=O)O4)cc3c2)cc1 (stereo not shown) [C-232A],I-TAC in plasma,[1]; 0.03 mg/kg,88 pg/mL
same,IFN-α in plasma,[1]; 0.03 mg/kg,90 pg/mL
same,IFN-γ in plasma,[1]; 0.03 mg/kg,43 pg/mL
same,IL-1RA in plasma,[1]; 0.03 mg/kg,169 pg/mL
same,IL-1β in plasma,[1]; 0.03 mg/kg,45 pg/mL
same,IL-6 in plasma,[1]; 0.03 mg/kg,43 pg/mL
same,IL-8 in plasma,[1]; 0.03 mg/kg,275 pg/mL
same,IL-10 in plasma,[1]; 0.03 mg/kg,42 pg/mL
same,IL-18 in plasma,[1]; 0.03 mg/kg,114 pg/mL
same,MCP-1 in plasma,[1]; 0.03 mg/kg,1900 pg/mL
same,MIG in plasma,[1]; 0.03 mg/kg,55 pg/mL
same,MIP-1α in plasma,[1]; 0.03 mg/kg,208 pg/mL
same,MIP-1β in plasma,[1]; 0.03 mg/kg,131 pg/mL
same,TNF-α in plasma,[1]; 0.03 mg/kg,56 pg/mL
same,VEGF-A in plasma,[1]; 0.03 mg/kg,107 pg/mL
same,I-TAC in plasma,[1]; 0.1 mg/kg,427 pg/mL
same,IFN-α in plasma,[1]; 0.1 mg/kg,143 pg/mL
same,IFN-γ in plasma,[1]; 0.1 mg/kg,75 pg/mL
same,IL-1RA in plasma,[1]; 0.1 mg/kg,775 pg/mL
same,IL-1β in plasma,[1]; 0.1 mg/kg,70 pg/mL
same,IL-6 in plasma,[1]; 0.1 mg/kg,126 pg/mL
same,IL-8 in plasma,[1]; 0.1 mg/kg,2531 pg/mL
same,IL-10 in plasma,[1]; 0.1 mg/kg,80 pg/mL
same,IL-18 in plasma,[1]; 0.1 mg/kg,193 pg/mL
same,MCP-1 in plasma,[1]; 0.1 mg/kg,3250 pg/mL
same,MIG in plasma,[1]; 0.1 mg/kg,64 pg/mL
same,MIP-1α in plasma,[1]; 0.1 mg/kg,160 pg/mL
same,MIP-1β in plasma,[1]; 0.1 mg/kg,428 pg/mL
same,TNF-α in plasma,[1]; 0.1 mg/kg,39 pg/mL
same,VEGF-A in plasma,[1]; 0.1 mg/kg,161 pg/mL
same,I-TAC in plasma,[1]; 0.3 mg/kg,365 pg/mL
same,IFN-α in plasma,[1]; 0.3 mg/kg,112 pg/mL
same,IFN-γ in plasma,[1]; 0.3 mg/kg,53 pg/mL
same,IL-1RA in plasma,[1]; 0.3 mg/kg,2265 pg/mL
same,IL-1β in plasma,[1]; 0.3 mg/kg,59 pg/mL
same,IL-6 in plasma,[1]; 0.3 mg/kg,76 pg/mL
same,IL-8 in plasma,[1]; 0.3 mg/kg,375 pg/mL
same,IL-10 in plasma,[1]; 0.3 mg/kg,54 pg/mL
same,IL-18 in plasma,[1]; 0.3 mg/kg,145 pg/mL
same,MCP-1 in plasma,[1]; 0.3 mg/kg,6117 pg/mL
same,MIG in plasma,[1]; 0.3 mg/kg,55 pg/mL
same,MIP-1α in plasma,[1]; 0.3 mg/kg,187 pg/mL
same,MIP-1β in plasma,[1]; 0.3 mg/kg,707 pg/mL
same,TNF-α in plasma,[1]; 0.3 mg/kg,19 pg/mL
same,VEGF-A in plasma,[1]; 0.3 mg/kg,81 pg/mL
same,I-TAC in plasma,[1]; 1 mg/kg,5602 pg/mL
same,IFN-α in plasma,[1]; 1 mg/kg,187 pg/mL
same,IFN-γ in plasma,[1]; 1 mg/kg,200 pg/mL
same,IL-1RA in plasma,[1]; 1 mg/kg,4471 pg/mL
same,IL-1β in plasma,[1]; 1 mg/kg,343 pg/mL
same,IL-6 in plasma,[1]; 1 mg/kg,3872 pg/mL
same,IL-8 in plasma,[1]; 1 mg/kg,6153 pg/mL
same,IL-10 in plasma,[1]; 1 mg/kg,82 pg/mL
same,IL-18 in plasma,[1]; 1 mg/kg,351 pg/mL
same,MCP-1 in plasma,[1]; 1 mg/kg,"13,620 pg/mL"
same,MIG in plasma,[1]; 1 mg/kg,658 pg/mL
same,MIP-1α in plasma,[1]; 1 mg/kg,1111 pg/mL
same,MIP-1β in plasma,[1]; 1 mg/kg,3913 pg/mL
same,TNF-α in plasma,[1]; 1 mg/kg,28 pg/mL
same,VEGF-A in plasma,[1]; 1 mg/kg,330 pg/mL
same,EC50,PKC-α,> 39.5 µM
same,translocation of endogenous PKC-θ from cytoplasm to cell edge,PKC-θ,efficient translocation of endogenous PKC-θ to the plasmalemma
same,circulating fibrinogen,rhesus macaques; 1 mg/kg,decreased
same,coagulation times,rhesus macaques; 1 mg/kg,prolonged
same,histopathology,rhesus macaques; 1 mg/kg,hemorrhage in the lung and adrenal gland
same,outcome (severe clinical signs),"rhesus macaques; 1 mg/kg, single IV infusion, 1 monkey",euthanized 8 hours postdose
same,tolerability,"rhesus macaques; 0.03, 0.1, and 0.3 mg/kg, single IV infusion",well tolerated
same,circulating platelet counts,rhesus macaques; higher doses,"< 100,000 platelets/µL"
same,mean platelet volume,rhesus macaques; higher doses,> 15 fL
same,MTD,[2],0.3 mg/kg
